Measurements as given in patent US12691143B2, “Method for treating cancer” (priority 2020, dated 2026).

System: SC14 (SW1710 derivative with ERCC2 P463L mutation)
Test: In vitro drug sensitivity assay
Format: cell-based
Conditions: ERCC2-mutant SC14 line compared with SW1710
Description: Bladder cancer cell lines were purchased from ATCC. The KE1 bladder cancer cell line is a derivative of KU19-19 in which an ERCC2 T484 mutation has been introduced by CRISPR/Cas9 gene editing as previously described (6). The MDA-MB-468 breast cancer cell line and its ERCC4-complemented derivative have been previously described (35). Small interfering RNAs (siRNAs) targeting specific NER genes as well as a non-targeting siRNA (siNTC) were purchased from Integrated DNA Technologies Inc. (Coralville, IA, USA; see Table 9 for sequences). Cells were seeded in 6-well plates and grown to 50% confluency. A transfection mixture containing siRNA diluted to a final concentration of 30 nM in Opti-MEM media containing Lipofectamine 3000 (Life Technologies; Carlsbad, CA) was then added to cells. After 48 hours, cells were trypsinized and re-aliquoted to separate wells and transfected with 15 nM siRNA for 24 hours immediately prior to viability assays performed as described below. […]
Cells were seeded in either 96-well (5,000 cells/well) or 24-well (20,000 cells/well) plates. […] Plates were scanned using a luminescence microplate reader (BioTek). […]

## CC1=C(CO)C2=C(C)C3(CC3)[C@@](C)(O)C(=O)C2=C1 [irofulven]
  drug sensitivity: significantly increased sensitivity
